Compound O=C1N2CN3C(=O)N4CN5C(=O)N6CN7C(=O)N8CN9C(=O)N%10CN%11C(=O)N%12CN1C1C2N2CN%13C(=O)N(CN%14C(=O)N(CN%15C(=O)N(CN%16C(=O)N(CN%17C(=O)N(CN1C2=O)C%12C%11%17)C%10C9%16)C8C7%15)C6C5%14)C4C3%13 (stereo not given) has a solubility (mole fraction) (in water, 293.15 K) of 0.00231, a solubility (mole fraction) (in water, 303.15 K) of 0.0027 and a solubility (mole fraction) (in water, 313.15 K) of 0.00336. The solubility (mole fraction) (in water, 323.15 K) was 0.00403, the solubility (mole fraction) (in water, 333.15 K) was 0.00481 and the solubility (mole fraction) (in water, 343.15 K) was 0.00573. The solubility (mole fraction) (in water, 353.15 K) was 0.00662.

CN1COCN(Cc2cnc(Cl)s2)C1=N[N+](=O)[O-] showed a solubility (mole fraction) (in methanol, 288.15 K) of 0.00111, a solubility (mole fraction) (in methanol, 293.15 K) of 0.00141 and a solubility (mole fraction) (in methanol, 298.15 K) of 0.00169. For the same compound, the solubility (mole fraction) (in methanol, 303.15 K) was 0.00225, the solubility (mole fraction) (in methanol, 308.15 K) was 0.00294 and the solubility (mole fraction) (in methanol, 313.15 K) was 0.00397. The solubility (mole fraction) (in methanol, 318.15 K) was 0.00486 and the solubility (mole fraction) (in methanol, 323.15 K) was 0.0063.

Nc1ccc(S(=O)(=O)Nc2ncccn2)cc1 gave a solubility (mole fraction) (in PEG-400, 298.15 K) of 0.0129, a solubility (mole fraction) (in PEG-400, 303.15 K) of 0.0132 and a solubility (mole fraction) (in PEG-400, 308.15 K) of 0.0134. The solubility (mole fraction) (in PEG-400, 313.15 K) was 0.0136, the solubility (mole fraction) (in PEG-400, 318.15 K) was 0.0139 and the solubility (mole fraction) (in n-propanol, 293.15 K) was 3.88e-05. The solubility (mole fraction) (in n-propanol, 298.15 K) was 4.71e-05, the solubility (mole fraction) (in n-propanol, 303.15 K) was 5.87e-05 and the solubility (mole fraction) (in n-propanol, 308.15 K) was 7.21e-05. It also gave a solubility (mole fraction) (in n-propanol, 313.15 K) of 9.13e-05 and a solubility (mole fraction) (in propylene glycol, 298.15 K) of 0.00047.

O=c1[nH]cc(I)c(=O)[nH]1 showed a solubility (mole fraction) (in water, 298.15 K) of 0.000373.

Compound CCCCC has a solubility (mole fraction) (in water, 286.65 K) of 1.1e-05 and a solubility (mole fraction) (in water, 295.45 K) of 1.03e-05.

For NCCS(=O)(=O)O, the solubility (mole fraction) (in water, 298.15 K) was 0.0143, the solubility (mole fraction) (in water, 303.15 K) was 0.0168 and the solubility (mole fraction) (in water, 308.15 K) was 0.0199. The solubility (mole fraction) (in water, 313.15 K) was 0.0231 and the solubility (mole fraction) (in water, 318.15 K) was 0.0269.

C[C@@H](O)[C@H]1C(=O)N2C(C(=O)[O-])=C(SC3Cn4cnc[n+]4C3)[C@H](C)[C@H]12 (stereo not given in full) gave a solubility (mole fraction) (in water, 283.15 K) of 0.000323, a solubility (mole fraction) (in water, 288.15 K) of 0.000367 and a solubility (mole fraction) (in water, 293.15 K) of 0.000413. It also gave a solubility (mole fraction) (in water, 298.15 K) of 0.000463, a solubility (mole fraction) (in water, 303.15 K) of 0.000521 and a solubility (mole fraction) (in water, 308.15 K) of 0.000584. The solubility (mole fraction) (in water, 313.15 K) was 0.000649, the solubility (mole fraction) (in water, 318.15 K) was 0.000721 and the solubility (mole fraction) (in water, 323.15 K) was 0.000807.

Compound O=C(O)[C@@H]1C[C@@H](O)CN1 has a solubility (mole fraction) (in water, 293.15 K) of 0.0483, a solubility (mole fraction) (in water, 298.15 K) of 0.0499 and a solubility (mole fraction) (in water, 303.15 K) of 0.0525. The solubility (mole fraction) (in water, 308.15 K) was 0.0551, the solubility (mole fraction) (in water, 313.15 K) was 0.0585 and the solubility (mole fraction) (in water, 318.15 K) was 0.0614.

For O=C1NC(=O)C(c2ccccc2)(c2ccccc2)N1, the solubility (mole fraction) (in NMP, 293.15 K) was 0.119, the solubility (mole fraction) (in NMP, 313.15 K) was 0.116 and the solubility (mole fraction) (in transcutol, 298.2 K) was 0.00133. It also gave a solubility (mole fraction) (in transcutol, 303.2 K) of 0.00144, a solubility (mole fraction) (in transcutol, 308.2 K) of 0.00151 and a solubility (mole fraction) (in transcutol, 313.2 K) of 0.00166. For the same compound, the solubility (mole fraction) (in water, 293.15 K) was 9.7e-07, the solubility (mole fraction) (in water, 298.2 K) was 1.51e-06 and the solubility (mole fraction) (in water, 303.2 K) was 1.72e-06. The solubility (mole fraction) (in water, 308.2 K) was 1.88e-06, the solubility (mole fraction) (in water, 313.15 K) was 1.91e-06 and the solubility (mole fraction) (in water, 313.2 K) was 2.08e-06.

O=c1cc(Cl)[nH]c(=O)[nH]1 gave a solubility (mole fraction) (in water, 298.15 K) of 0.000603.

CCCCCC showed a solubility (mole fraction) (in water, 280.8 K) of 3.1e-06 and a solubility (mole fraction) (in water, 295.5 K) of 2.7e-06.

Work on O=[N+]([O-])c1ccc(N/N=C/c2ccco2)c([N+](=O)[O-])c1 yielded a solubility (mole fraction) (in water, 298.15 K) of 1.4e-08.

Compound O=C(O)CNCP(=O)(O)O has a solubility (mole fraction) (in water, 293.67 K) of 0.00112, a solubility (mole fraction) (in water, 302.65 K) of 0.0014 and a solubility (mole fraction) (in water, 311.95 K) of 0.00174. It also gave a solubility (mole fraction) (in water, 317.15 K) of 0.00202, a solubility (mole fraction) (in water, 322.15 K) of 0.00226 and a solubility (mole fraction) (in water, 327 K) of 0.0025. For the same compound, the solubility (mole fraction) (in water, 332.35 K) was 0.00285.

In the case of COc1ccc2c(c1)c(CC(=O)O)c(C)n2C(=O)c1ccc(Cl)cc1, the solubility (mole fraction) (in acetone, 293 K) is reported as 0.0183, the solubility (mole fraction) (in acetone, 298 K) is reported as 0.0208 and the solubility (mole fraction) (in acetone, 303 K) is reported as 0.0236. It also gave a solubility (mole fraction) (in acetone, 308 K) of 0.0273, a solubility (mole fraction) (in acetone, 313 K) of 0.0316 and a solubility (mole fraction) (in acetone, 318 K) of 0.0365.

O=[N+]([O-])c1ccc(N/N=C/c2cccs2)cc1 gave a solubility (mole fraction) (in water, 298.15 K) of 1.68e-07.

Work on C1=Cc2nc1c(-c1ccccc1)c1ccc([nH]1)c(-c1ccccc1)c1nc(c(-c3ccccc3)c3ccc([nH]3)c2-c2ccccc2)C=C1 yielded a solubility (mole fraction) (in ethanol, 303.2 K) of 1.76e-06, a solubility (mole fraction) (in ethanol, 313.2 K) of 2.31e-06 and a solubility (mole fraction) (in ethanol, 323.2 K) of 3.06e-06. For the same compound, the solubility (mole fraction) (in ethanol, 333.2 K) was 4.01e-06.

With CN1C(C(=O)Nc2ccccn2)=C(O)c2ccccc2S1(=O)=O the solubility (mole fraction) (in ethanol, 298.15 K) was 0.000214 and the solubility (mole fraction) (in water, 298.15 K) was 4.01e-07.

Reference: BigSolDB 2.1
